For test [1], the target named is T1, Adenosine receptor A1 (Homo sapiens, UniProt P30542).
T1 sequence (P30542 whole entry): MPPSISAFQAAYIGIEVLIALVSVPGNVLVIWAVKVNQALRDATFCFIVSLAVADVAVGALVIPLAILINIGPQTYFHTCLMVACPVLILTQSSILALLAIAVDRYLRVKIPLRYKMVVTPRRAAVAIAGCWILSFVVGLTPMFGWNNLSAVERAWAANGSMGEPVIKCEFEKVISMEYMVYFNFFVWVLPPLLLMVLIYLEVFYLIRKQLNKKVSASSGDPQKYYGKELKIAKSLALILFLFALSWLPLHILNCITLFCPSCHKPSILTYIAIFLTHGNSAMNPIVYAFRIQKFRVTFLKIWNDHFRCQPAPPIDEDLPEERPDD
Description: Displacement of [3H]CHA from human Adenosine A1 receptor expressed in CHO cells. It counts as cell-based.

Test [2] has as its target T2, Adenosine receptor A2a (Homo sapiens, UniProt P29274). Description: Displacement of [3H]-SCH- 58261 from human Adenosine A2A receptor expressed in CHO cells. It counts as cell-based.
For test [3], the target named is T2, Adenosine receptor A2a. Description: Inhibition of 1 uM NECA-stimulated cyclic AMP levels in human platelets. It counts as functional.
Test [4] can be described thus: Selectivity for human A3 adenosine receptor and rat A2A adenosine receptor.
For test [5], the target named is T3, Adenosine receptor A1 (Rattus norvegicus, UniProt P25099).
T3 sequence (P25099 whole entry): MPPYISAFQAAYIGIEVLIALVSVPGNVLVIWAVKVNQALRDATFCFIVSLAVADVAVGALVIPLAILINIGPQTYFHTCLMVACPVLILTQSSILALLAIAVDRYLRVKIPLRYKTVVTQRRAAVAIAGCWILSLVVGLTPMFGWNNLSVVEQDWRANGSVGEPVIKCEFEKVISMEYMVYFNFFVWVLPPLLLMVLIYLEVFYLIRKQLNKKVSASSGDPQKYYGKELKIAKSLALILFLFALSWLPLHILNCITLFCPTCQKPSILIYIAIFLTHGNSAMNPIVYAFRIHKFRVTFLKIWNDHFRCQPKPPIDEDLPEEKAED
Description: Displacement of [3H]CHA from rat cortical membrane Adenosine A1 receptor. Parenthesis indicate 95% confidence limit.

Test [6] concerns the target Adenosine receptor A2a (Rattus norvegicus, UniProt P30543).
For test [7], the target named is T4, Adenosine receptor A3 (Homo sapiens, UniProt P0DMS8).
T4 sequence (P0DMS8 whole entry): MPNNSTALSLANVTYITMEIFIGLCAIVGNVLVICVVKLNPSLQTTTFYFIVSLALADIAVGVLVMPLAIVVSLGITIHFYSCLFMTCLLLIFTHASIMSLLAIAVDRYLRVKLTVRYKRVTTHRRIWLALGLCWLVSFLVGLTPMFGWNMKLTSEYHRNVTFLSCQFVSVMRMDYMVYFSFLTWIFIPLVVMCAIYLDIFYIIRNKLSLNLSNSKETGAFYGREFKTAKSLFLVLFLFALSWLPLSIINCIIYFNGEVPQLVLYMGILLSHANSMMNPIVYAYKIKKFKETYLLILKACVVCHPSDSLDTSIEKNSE
Description: biochemical.
Description: (§1) Displacement of [125I]AB-MECA from human Adenosine A3 receptor expressed in HEK293 cells

The target of test [8] is T4, Adenosine receptor A3. Description: biochemical. The source holds these as a separate data set.
Description: as §1

Each structure is given as a SMILES string.

Sequence of Adenosine receptor A2a (Rattus norvegicus, UniProt P30543) (P30543 whole entry): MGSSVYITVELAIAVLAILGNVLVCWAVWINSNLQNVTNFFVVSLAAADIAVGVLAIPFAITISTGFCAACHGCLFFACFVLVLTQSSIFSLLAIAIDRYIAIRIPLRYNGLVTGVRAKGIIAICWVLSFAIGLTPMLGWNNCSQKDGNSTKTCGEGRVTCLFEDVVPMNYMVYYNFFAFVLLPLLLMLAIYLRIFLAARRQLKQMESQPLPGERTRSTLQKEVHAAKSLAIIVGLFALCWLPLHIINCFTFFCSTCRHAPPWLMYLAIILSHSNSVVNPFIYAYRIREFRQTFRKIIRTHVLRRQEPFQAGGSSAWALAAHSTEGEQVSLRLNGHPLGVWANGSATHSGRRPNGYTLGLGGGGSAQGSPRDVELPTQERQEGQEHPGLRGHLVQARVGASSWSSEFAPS
T2 sequence (P29274 whole entry): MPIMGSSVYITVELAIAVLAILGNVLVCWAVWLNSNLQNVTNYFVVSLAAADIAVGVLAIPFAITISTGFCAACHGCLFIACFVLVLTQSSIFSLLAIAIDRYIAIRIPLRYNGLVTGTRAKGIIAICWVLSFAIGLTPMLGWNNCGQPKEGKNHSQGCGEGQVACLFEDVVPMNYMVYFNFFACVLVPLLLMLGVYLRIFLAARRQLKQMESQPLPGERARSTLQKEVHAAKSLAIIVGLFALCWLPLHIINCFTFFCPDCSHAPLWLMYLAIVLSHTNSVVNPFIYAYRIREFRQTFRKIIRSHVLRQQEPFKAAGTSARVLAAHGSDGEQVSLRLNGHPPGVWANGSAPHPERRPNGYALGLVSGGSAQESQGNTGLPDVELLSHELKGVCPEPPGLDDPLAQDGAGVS

For `COc1ccc(CCCn2ncc3c2nc(N)n2nc(-c4ccco4)nc32)cc1OC`, the Ki is 1650 nM at Adenosine receptor A1 [1]; 2.7 nM at Adenosine receptor A2a [2]; 2830 nM on Adenosine receptor A1 [5]; 5.3 nM on Adenosine receptor A2a [6]; above 10000 nM at Adenosine receptor A3 [7]; above 10000 nM at Adenosine receptor A3 [8]. The same compound had an IC50 against Adenosine receptor A2a [3] of 20 nM. In test [4], this compound came in with a Selectivity above 1890.

Turning to `Nc1nc2c(cnn2CCCc2ccccc2)c2nc(-c3ccco3)nn12` [SCH-63390], the Ki on Adenosine receptor A3 [7] was above 10000 nM.

Consider `Nc1nc2c(cnn2CCc2ccc(OCc3ccccc3)cc2)c2nc(-c3ccco3)nn12`, for which the half-inhibitory concentration (IC50) on Adenosine receptor A2a [3] was 90 nM. The compound also gave a Selectivity in test [4] above 169. Also, the Ki was above 10000 nM on Adenosine receptor A1 [5], 59 nM on Adenosine receptor A2a [6] and above 10000 nM at Adenosine receptor A3 [7].

Take `Nc1nc2c(cnn2CCc2ccccc2)c2nc(-c3ccco3)nn12` [SCH-58261]: the Ki on Adenosine receptor A3 [7] is above 10000 nM.

Regarding `Nc1nc2c(cnn2CCCc2ccc(O)c(O)c2)c2nc(-c3ccco3)nn12`, the IC50 on Adenosine receptor A2a [3] is 60 nM. In test [4], this compound displayed a Selectivity above 204. In addition, the Ki is 2250 nM on Adenosine receptor A1 [5], 49 nM at Adenosine receptor A2a [6] and above 10000 nM at Adenosine receptor A3 [7].

As to `Nc1nc2ccc(Cl)cc2c2nc(-c3ccco3)nn12` [CGS-15943], the Ki on Adenosine receptor A2a [6] stood at 0.95 nM; at Adenosine receptor A3 [7], 14 nM.

On to `Nc1nc2c(cnn2Cc2ccc(OCc3ccccc3)cc2)c2nc(-c3ccco3)nn12`, for which the IC50 on Adenosine receptor A2a [3] amounted to 500 nM. This compound also returned a Selectivity in test [4] above 40. Moreover, the results for the Ki on Adenosine receptor A1 [5], on Adenosine receptor A2a [6] and on Adenosine receptor A3 [7] were 9450 nM, 246 nM and above 10000 nM, respectively.

With `Nc1nc2c(cnn2CCCc2ccc(O)cc2)c2nc(-c3ccco3)nn12`, the Ki on Adenosine receptor A1 [1] was 253 nM; at Adenosine receptor A2a [2], 1.5 nM; on Adenosine receptor A1 [5], 741 nM; at Adenosine receptor A2a [6] it was 0.94 nM; at Adenosine receptor A3 [7], above 10000 nM; on Adenosine receptor A3 [8] it was above 10000 nM. The compound also yielded an IC50 at Adenosine receptor A2a [3] of 10 nM. For the same compound, the Selectivity in test [4] was above 10600.

Consider `Nc1nc2c(cnn2Cc2ccc(O)cc2)c2nc(-c3ccco3)nn12`, for which the midpoint of inhibition against Adenosine receptor A2a [3], the IC50, lay at 149 nM. Moreover, the Selectivity in test [4] was above 188. Moreover, the inhibitory constant (Ki) was 13400 nM at Adenosine receptor A1 [5], 53 nM at Adenosine receptor A2a [6] and above 10000 nM at Adenosine receptor A3 [7].

For `Nc1nc2c(cnn2CCCc2ccc(OCc3ccccc3)cc2)c2nc(-c3ccco3)nn12`, on Adenosine receptor A2a [3], half-maximal inhibition (IC50) required 300 nM. Further, the Selectivity in test [4] was above 222. Besides, the Ki is 1460 nM at Adenosine receptor A1 [5], 45 nM at Adenosine receptor A2a [6] and above 10000 nM at Adenosine receptor A3 [7].

Turning to `Nc1nc2c(cnn2CCCc2ccc3c(c2)OCO3)c2nc(-c3ccco3)nn12`, the Ki at Adenosine receptor A1 [1] is 2170 nM; at Adenosine receptor A2a [2], 3.3 nM; at Adenosine receptor A1 [5], 1840 nM; at Adenosine receptor A2a [6], 3.8 nM; at Adenosine receptor A3 [7], above 10000 nM; on Adenosine receptor A3 [8] it was above 10000 nM. Also, on Adenosine receptor A2a [3], the half-maximal inhibitory concentration (IC50) worked out at 8 nM. The compound further yielded a Selectivity in test [4] above 2630.

Compound `Nc1nc2c(cnn2CCc2ccc(O)cc2)c2nc(-c3ccco3)nn12` gave an IC50 on Adenosine receptor A2a [3] of 14 nM. In addition, in test [4], the Selectivity was above 5880. Moreover, the values for the inhibition constant Ki on Adenosine receptor A1 [5], on Adenosine receptor A2a [6] and on Adenosine receptor A3 [7] were 444 nM, 1.7 nM and above 10000 nM, respectively.

Broadly, the Ki is a dissociation constant, usually derived from enzyme kinetics or from competition with a known ligand. The IC50 is the concentration needed to halve the response being measured. Lower therefore signals higher potency.

The values are drawn from ChEMBL document CHEMBL1131246, “Design, synthesis, and biological evaluation of a second generation of pyrazolo[4,3-e]-1,2,4-triazolo[1,5-c]pyrimidines as potent and selective A2A adenosine receptor antagonists” (J Med Chem, 1998).
